In PMC5814047, “Peptidic inhibitors of insulin-degrading enzyme with potential for dermatological applications discovered via phage display” (PLoS ONE, 2018):
Several values for one entry are separate records, joined by “and”; a condition that tells them apart may be missing. Equal entries are not always repeated. Bridge positions count the residues as written; N and C are the ends. Peptide text beside a SMILES is read from it.

How the values were obtained:
[1] = system: primary murine skin fibroblasts; test: Insulin degradation in primary murine skin fibroblasts (ELISA of conditioned medium); type: cell-based; details: for Percent insulin remaining, Mean / Percent insulin remaining: P12-3A 100 uM, 100nM insulin added; for Percent insulin remaining, Mean: N 4; for Percent insulin remaining: conditioned medium, individual replicates
Experimental: (§1) Insulin promotes wound healing and overall skin health by affecting a number of processes, including cell proliferation, cell migration, and the production and secretion of ECM components, particularly type I collagen. We therefore assessed the ability of P12-3A to influence these processes in cultured skin fibroblasts and keratinocytes. To that end, primary mouse skin fibroblasts were grown for 4 d in multiple concentrations of insulin in the presence or absence of P12-3A, and insulin concentration over time was monitored by ELISA. […] Finally, the effects of P12-3A on collagen production in were assessed at both the transcriptional and the posttranslational level in confluent monolayers of fibroblasts. After 4 d of treatment with P12-3A (100 μM), mRNA levels for the major form of collagen, alpha-1 type I collagen (COL1A1), were quantified by RT-PCR and found to be increased to ~2.6 times the levels of untreated cells (Fig 4C). To assess overall levels of collagen production and secretion, we quantified levels of hydroxyproline, a modified amino acid present almost exclusively in collagen proteins. […] Western blotting also confirmed that mature, cell-associated collagen levels were increased in the presence of P12-3A (Fig 4E).
(§2) Fig 4 Effects of P12-3A on cultured skin cells. A, Insulin concentrations as a function of time in logarithmically growing primary murine skin fibroblasts in the absence or presence of P12-3A (100 μM). […] Data are mean ± SEM of 4 independent replications. *P<0.05, **P<0.01. B, Proliferation of cells in the absence or presence of P12-3A (100 μM). Data are mean ± SEM of 6 independent replications. […] C,D,E, P12-3A (100 μM) potentiates insulin-induced collagen production in skin fibroblasts. Collagen production was assessed by COL1A1 mRNA levels (C), levels of hydroxyproline secreted into the medium (D), and cell-associated mature alpha-1 type I collagen levels detected by Western blotting (E). Data are mean ± SD of 4 independent replications. *P<0.05, **P<0.01. […] Migration of HaCaT cells 48 h after induction of a scratch wound in the presence of the indicated quantities of insulin and/or P12-3A (100 μM). Data are mean ± SEM of 6 independent replications. *P<0.05, **P<0.01.
(§3) IDE activity was quantified by monitoring the degradation of Mca-[…](Dnp) (FRET1, 5 μM), fluoresceinated and biotinylated amyloid ß-protein (FAßB; 500 nM) or recombinant human insulin (50 nM) in PBS supplemented with 0.05% BSA. FRET1 degradation was measured by changes in fluorescence (λex = 340 nm, λem = 420 nm); FAßB degradation was monitored by fluorescence polarization (λex = 488 nm, λem = 525 nm), as described; and insulin degradation was quantified by ELISA. In vitro activity assays incorporated recombinant human IDE (1 nM) purified from bacteria. For quantitation of insulin degradation in primary murine skin fibroblasts, cells (1 x 10^5/well) were plated in 96-well plates and maintained in DMEM supplemented with 10% fetal bovine serum (FBS), 2mM glutamine, penicillin and streptomycin. After addition of insulin (10 nM or 100 nM), samples of conditioned medium were removed daily and quickly frozen, then insulin levels were quantified in parallel by ELISA according to manufacturer’s recommendations (Crystal Chem, Downers Grove, IL, USA). Assessment of the activity of P12-3A against a variety of matrix-metalloproteases was conducted using the Matrix Metalloproteinase (MMP) Inhibitor Profiling Kit, Fluorometric RED (Enzo Life Sciences, Inc., Farmingdale, NY, USA) according to manufacturer’s recommendations using the broad-spectrum MMP inhibitor, NNGH, as a positive control.

[2] = system: hydroxyproline secreted by primary murine skin fibroblasts; test: Hydroxyproline secretion into medium; type: cell-based
Experimental: as §1, §2
For quantitation of hydroxyproline secretion by primary murine skin fibroblasts, cells (1 x 10^5/well) were plated in 24-well plates DMEM supplemented with 10% FBS, 2mM glutamine, penicillin, streptomycin and 100 nM insulin, in the absence or presence of 100 μM P12-3A. After incubation for 4 days, the conditioned medium was removed, centrifuged at 1000 x g for 10 min to remove cellular debris, and hydroxyproline levels were quantified using the Hydroxyproline Assay Kit according to manufacturer’s recommendations (Sigma-Aldrich, St. Louis, MO, USA).

[3] = system: multiple matrix-metalloproteases (MMPs); test: Matrix Metalloproteinase (MMP) Inhibitor Profiling Kit, Fluorometric RED; type: biochemical; parameters: % activity relative to DMSO-only controls, single runs / % activity relative to DMSO-only controls, Mean: concentration or dose not given beside the values; details: for % activity relative to DMSO-only controls, single runs: each run mean of duplicates
Experimental: as §3
Supplementary file pone.0193101.s004.tif: S4 Fig Selectivity of P12-3A for IDE vis-à-vis other proteases. Activity of P12-3A (100 μM) against (A) multiple matrix-metalloproteases (MMPs) and (B) multiple peptidases of different protease classes. […] Data are mean ± SD, n = 8–16 per group. P<0.05 by 2-tailed Student’s t-test. […] See Materials and Methods for details. NEP, neprilysin; mCatD, murine cathepsin D; hCatD, human cathepsin D. (TIF) Click here for additional data file.

CC(C)C[C@H](NC(=O)[C@H](CO)NC(=O)[C@@H](N)CCC(N)=O)C(=O)N1CCC[C@H]1C(=O)N[C@@H](Cc1c[nH]c2ccccc12)C(=O)N[C@H]1CSSC[C@@H](C(=O)N[C@H](C(=O)N[C@H](C(N)=O)[C@@H](C)O)C(C)C)NC(=O)[C@H](Cc2c[nH]cn2)NC(=O)[C@@H]2CCCN2C(=O)[C@H](Cc2ccc(O)cc2)NC1=O [P12-3A] (H-QSLPWCYPHCVT-NH2; disulfide 6-10 (inferred))
insulin levels over time in cells ([1]; 100 μM P12-3A, 10 nM insulin, up to day 4, logarithmically growing cells): remain constant | Percent insulin remaining, Mean ([1]; t 0 d): 100.0% | Percent insulin remaining ([1]; t 0 d): 85.1403% and 114.724% and 102.178% and 97.9576% | Percent insulin remaining, Mean ([1]; t 1 d): 102.0% | Percent insulin remaining ([1]; t 1 d): 95.514% and 88.3018% and 126.115% and 98.0694% | Percent insulin remaining, Mean ([1]; t 2 d): 97.0% | Percent insulin remaining ([1]; t 2 d): 100.082% and 83.3067% and 102.861% and 101.75% | Percent insulin remaining, Mean ([1]; t 3 d): 91.0% | Percent insulin remaining ([1]; t 3 d): 84.576% and 69.9969% and 96.4916% and 112.935% | Percent insulin remaining, Mean ([1]; t 4 d): 96.0% | Percent insulin remaining ([1]; t 4 d): 100.148% and 97.4317% and 103.413% and 83.0078% | hydroxyproline levels secreted into the medium ([2]; 100 μM P12-3A, 100 nM insulin, 4 days): ~ 4.6 times that secreted by untreated cells | Hydroxyproline, Mean ([2]; from standard curve, N 4): 0.989 ug/well | Hydroxyproline ([2]; from standard curve, individual replicates): 0.7793 ug/well and 1.026 ug/well and 0.6312 ug/well and 1.309 ug/well | Hydroxyproline, Normalized, Mean ([2]; normalized to control mean (1.000), N 4): 4.585 | Hydroxyproline, Normalized ([2]; normalized to control mean (1.000), individual replicates): 3.613 and 4.758 and 2.926 and 6.069 | Hydroxyproline quantification, OD560 ([2]; raw OD560, individual replicates): 0.849 and 1.1137 and 0.6903 and 1.4165 | % activity relative to DMSO-only controls, Mean ([3]; MMP-1): 87% | % activity relative to DMSO-only controls, single runs ([3]; MMP-1): 105.8321% and 102.1980% and 83.6377% and 95.1040% and 96.8615% and 66.9344% and 67.7846% and 75.7623% | % activity relative to DMSO-only controls, Mean ([3]; MMP-2): 101% | % activity relative to DMSO-only controls, single runs ([3]; MMP-2): 134.1641% and 93.5356% and 119.9423% and 88.3713% and 112.6968% and 77.2842% and 100.8622% and 77.2868% | % activity relative to DMSO-only controls, Mean ([3]; MMP-3): 93% | % activity relative to DMSO-only controls, single runs ([3]; MMP-3): 94.6432% and 93.2955% and 89.9170% and 91.8916% and 91.6457% and 97.0044% and 92.2721% and 90.5895% | % activity relative to DMSO-only controls, Mean ([3]; MMP-8): 114% | % activity relative to DMSO-only controls, single runs ([3]; MMP-8): 99.7304% and 123.9354% and 116.1961% and 104.6766% and 117.7573% and 98.6189% and 113.4567% and 134.2719% | % activity relative to DMSO-only controls, Mean ([3]; MMP-9): 96% | % activity relative to DMSO-only controls, single runs ([3]; MMP-9): 99.3059% and 91.4690% and 98.9883% and 93.1451% and 94.2109% and 106.2066% and 100.0306% and 85.1586% | % activity relative to DMSO-only controls, Mean ([3]; MMP-12): 89% | % activity relative to DMSO-only controls, single runs ([3]; MMP-12): 81.7387% and 84.5842% and 96.0954% and 81.6283% and 94.7460% and 96.1245% and 93.1866% and 82.8317% | % activity relative to DMSO-only controls, Mean ([3]; MMP-13): 97% | % activity relative to DMSO-only controls, single runs ([3]; MMP-13): 85.9593% and 124.8564% and 91.0861% and 131.0115% and 78.1511% and 84.2743% and 87.8510% and 91.4553% | % activity relative to DMSO-only controls, Mean ([3]; MMP-14): 117% | % activity relative to DMSO-only controls, single runs ([3]; MMP-14): 110.7407% and 115.7751% and 123.1998% and 129.5171% and 110.1580% and 106.8971% and 114.7013% and 125.4828% | % activity relative to DMSO-only controls, Mean ([3]; MMP-19): 92% | % activity relative to DMSO-only controls, single runs ([3]; MMP-19): 98.6000% and 87.1925% and 92.0753% and 96.2890% and 86.4215% and 92.6495% and 89.4846% and 96.8071%
